Reference: ChEMBL document CHEMBL3085695, “Novel state-dependent voltage-gated sodium channel modulators, based on marine alkaloids from Agelas sponges” (Eur J Med Chem, 2013)

Experiments:
[1] = target: Sodium channel protein type 5 subunit alpha (Homo sapiens, UniProt Q14524); experiment: Modulation of human Nav1.5 by automated patch clamp electrophysiology assay
[2] = target: Sodium channel protein type 9 subunit alpha (Homo sapiens, UniProt Q15858); experiment: Modulation of human Nav1.7 by automated patch clamp electrophysiology assay
[3] = target: Sodium channel protein type 4 subunit alpha (Homo sapiens, UniProt P35499); experiment: Modulation of human Nav1.4 by automated patch clamp electrophysiology assay
[4] = target: Sodium channel protein type 3 subunit alpha (Homo sapiens, UniProt Q9NY46); experiment: Modulation of human Nav1.3 by automated patch clamp electrophysiology assay
Sodium channel protein type 3 subunit alpha, sequence (Q9NY46 whole entry): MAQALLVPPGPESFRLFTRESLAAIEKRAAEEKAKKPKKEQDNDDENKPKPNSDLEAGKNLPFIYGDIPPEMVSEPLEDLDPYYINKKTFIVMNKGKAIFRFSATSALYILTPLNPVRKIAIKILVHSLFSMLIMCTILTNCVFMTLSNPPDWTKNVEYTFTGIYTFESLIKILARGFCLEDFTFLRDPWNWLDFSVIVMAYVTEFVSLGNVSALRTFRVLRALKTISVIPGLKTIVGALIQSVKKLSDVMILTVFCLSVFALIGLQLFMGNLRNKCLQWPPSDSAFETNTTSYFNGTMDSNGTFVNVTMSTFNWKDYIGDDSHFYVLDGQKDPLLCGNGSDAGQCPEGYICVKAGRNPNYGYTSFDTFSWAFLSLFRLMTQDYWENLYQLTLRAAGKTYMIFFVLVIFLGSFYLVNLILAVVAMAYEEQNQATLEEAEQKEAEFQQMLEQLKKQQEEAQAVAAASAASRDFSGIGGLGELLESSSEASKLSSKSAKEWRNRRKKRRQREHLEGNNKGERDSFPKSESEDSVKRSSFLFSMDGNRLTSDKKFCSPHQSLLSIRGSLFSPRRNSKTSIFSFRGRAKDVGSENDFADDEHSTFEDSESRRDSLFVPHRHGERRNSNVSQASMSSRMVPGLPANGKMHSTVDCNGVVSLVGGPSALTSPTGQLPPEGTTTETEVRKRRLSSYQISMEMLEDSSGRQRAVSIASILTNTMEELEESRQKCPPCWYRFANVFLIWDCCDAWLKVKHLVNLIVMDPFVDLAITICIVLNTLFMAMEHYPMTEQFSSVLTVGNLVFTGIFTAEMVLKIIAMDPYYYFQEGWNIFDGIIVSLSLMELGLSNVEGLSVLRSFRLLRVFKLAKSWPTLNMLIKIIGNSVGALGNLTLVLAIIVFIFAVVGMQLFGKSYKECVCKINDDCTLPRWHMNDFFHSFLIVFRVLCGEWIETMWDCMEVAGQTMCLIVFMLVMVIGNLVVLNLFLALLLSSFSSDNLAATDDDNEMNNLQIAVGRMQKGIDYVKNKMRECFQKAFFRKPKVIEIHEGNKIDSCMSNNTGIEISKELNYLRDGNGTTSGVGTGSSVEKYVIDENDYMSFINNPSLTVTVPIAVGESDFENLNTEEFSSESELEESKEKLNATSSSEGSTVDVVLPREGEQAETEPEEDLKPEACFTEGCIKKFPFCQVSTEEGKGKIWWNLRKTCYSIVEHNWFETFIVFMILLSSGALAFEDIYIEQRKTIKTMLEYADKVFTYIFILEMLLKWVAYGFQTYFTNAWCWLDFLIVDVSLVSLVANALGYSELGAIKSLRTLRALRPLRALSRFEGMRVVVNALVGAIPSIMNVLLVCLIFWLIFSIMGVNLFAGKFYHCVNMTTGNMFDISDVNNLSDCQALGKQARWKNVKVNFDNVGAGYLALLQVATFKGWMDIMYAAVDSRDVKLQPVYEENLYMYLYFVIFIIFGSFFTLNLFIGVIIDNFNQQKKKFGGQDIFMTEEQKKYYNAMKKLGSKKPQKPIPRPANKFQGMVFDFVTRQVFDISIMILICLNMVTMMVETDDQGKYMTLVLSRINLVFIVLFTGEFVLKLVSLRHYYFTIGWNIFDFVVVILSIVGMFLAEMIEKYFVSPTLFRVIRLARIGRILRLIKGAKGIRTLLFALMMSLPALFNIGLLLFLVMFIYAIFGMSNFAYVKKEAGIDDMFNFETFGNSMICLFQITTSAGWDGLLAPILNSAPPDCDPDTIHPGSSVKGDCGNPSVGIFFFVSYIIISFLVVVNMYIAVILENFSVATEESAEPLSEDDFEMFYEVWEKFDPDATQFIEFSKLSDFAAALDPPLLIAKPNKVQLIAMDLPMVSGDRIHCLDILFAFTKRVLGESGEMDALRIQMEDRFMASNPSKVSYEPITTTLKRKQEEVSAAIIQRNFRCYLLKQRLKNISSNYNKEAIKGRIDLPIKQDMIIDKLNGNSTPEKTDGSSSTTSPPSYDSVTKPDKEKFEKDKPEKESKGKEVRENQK

Sodium channel protein type 5 subunit alpha, sequence (Q14524 whole entry): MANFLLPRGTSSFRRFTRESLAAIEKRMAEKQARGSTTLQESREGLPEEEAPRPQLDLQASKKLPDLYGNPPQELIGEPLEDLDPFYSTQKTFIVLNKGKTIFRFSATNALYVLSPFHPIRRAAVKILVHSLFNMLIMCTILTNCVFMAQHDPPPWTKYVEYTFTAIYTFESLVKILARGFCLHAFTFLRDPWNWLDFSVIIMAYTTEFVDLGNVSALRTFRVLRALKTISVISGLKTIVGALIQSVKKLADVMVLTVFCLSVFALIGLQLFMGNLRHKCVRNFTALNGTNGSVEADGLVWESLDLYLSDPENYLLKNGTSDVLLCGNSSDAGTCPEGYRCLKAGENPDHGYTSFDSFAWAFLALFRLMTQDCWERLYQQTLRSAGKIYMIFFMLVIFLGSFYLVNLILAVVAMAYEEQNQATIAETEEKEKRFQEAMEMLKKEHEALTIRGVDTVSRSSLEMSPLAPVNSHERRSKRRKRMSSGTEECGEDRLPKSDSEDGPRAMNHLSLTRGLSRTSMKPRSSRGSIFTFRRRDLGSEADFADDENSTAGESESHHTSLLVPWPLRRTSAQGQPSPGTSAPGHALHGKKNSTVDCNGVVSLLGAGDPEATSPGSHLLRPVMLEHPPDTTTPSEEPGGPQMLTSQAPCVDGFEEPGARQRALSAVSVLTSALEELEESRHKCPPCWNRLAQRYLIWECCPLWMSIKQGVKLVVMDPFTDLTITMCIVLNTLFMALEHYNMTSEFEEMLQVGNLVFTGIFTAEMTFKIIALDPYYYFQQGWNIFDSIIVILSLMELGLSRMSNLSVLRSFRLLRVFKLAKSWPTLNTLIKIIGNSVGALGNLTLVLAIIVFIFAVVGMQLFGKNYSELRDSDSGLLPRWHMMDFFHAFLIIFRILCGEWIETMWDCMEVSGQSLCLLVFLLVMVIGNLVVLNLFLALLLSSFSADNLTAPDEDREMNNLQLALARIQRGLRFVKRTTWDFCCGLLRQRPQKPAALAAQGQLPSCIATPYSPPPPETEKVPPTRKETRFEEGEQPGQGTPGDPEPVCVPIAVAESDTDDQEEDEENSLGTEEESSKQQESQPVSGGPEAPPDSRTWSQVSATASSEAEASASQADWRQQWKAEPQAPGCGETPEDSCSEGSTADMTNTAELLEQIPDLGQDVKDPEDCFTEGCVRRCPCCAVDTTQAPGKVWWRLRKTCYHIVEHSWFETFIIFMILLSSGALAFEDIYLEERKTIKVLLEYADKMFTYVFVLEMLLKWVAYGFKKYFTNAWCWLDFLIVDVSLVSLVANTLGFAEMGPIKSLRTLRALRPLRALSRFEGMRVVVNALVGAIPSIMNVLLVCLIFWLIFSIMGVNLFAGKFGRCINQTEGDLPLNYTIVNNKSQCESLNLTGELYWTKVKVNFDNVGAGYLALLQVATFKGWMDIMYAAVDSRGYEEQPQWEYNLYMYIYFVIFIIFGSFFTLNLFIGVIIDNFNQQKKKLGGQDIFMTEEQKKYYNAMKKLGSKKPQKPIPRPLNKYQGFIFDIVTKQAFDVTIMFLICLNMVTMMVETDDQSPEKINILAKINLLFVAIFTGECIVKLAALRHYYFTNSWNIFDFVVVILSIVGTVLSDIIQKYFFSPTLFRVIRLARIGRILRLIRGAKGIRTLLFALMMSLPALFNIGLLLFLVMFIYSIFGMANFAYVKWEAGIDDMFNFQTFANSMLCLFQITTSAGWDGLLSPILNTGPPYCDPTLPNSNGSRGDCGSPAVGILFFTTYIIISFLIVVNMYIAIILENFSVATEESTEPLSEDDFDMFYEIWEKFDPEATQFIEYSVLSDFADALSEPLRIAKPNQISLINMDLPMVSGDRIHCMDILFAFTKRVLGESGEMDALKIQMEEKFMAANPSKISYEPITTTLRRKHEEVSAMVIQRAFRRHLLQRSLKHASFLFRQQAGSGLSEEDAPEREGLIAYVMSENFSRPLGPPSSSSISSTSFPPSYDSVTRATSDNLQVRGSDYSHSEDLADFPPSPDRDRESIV

Structure (SMILES) | IC50 [2] [µM] | IC50 [3] [µM] | IC50 [4] [µM] | IC50 [1] [µM]
Nc1nc2c(s1)C[C@@H](NC(=O)c1cc3ccccc3[nH]1)CC2 | 29 | 16 | > 30 | > 30
CC(C)(C)OC(=O)N1CCC[C@H]1C(=O)N[C@H]1CCc2nc(N)sc2C1 | > 30 | 8 | > 30 | > 30
Nc1nc2c(s1)C[C@@H](NC(=O)c1ccco1)CC2 | > 30 | > 30 | 27 | > 30
Nc1nc2c(s1)C[C@@H](NCc1ccc[nH]1)CC2 | 21 | 30 | 25 | > 30
Nc1nc2c(s1)CC(CNC(=O)c1cc(Br)c(Br)[nH]1)CC2 (stereo unspecified) | 23 | > 30 | 18 | > 30
Nc1nc2c(s1)CC(CNC(=O)c1cc3ccccc3[nH]1)CC2 (stereo unspecified) | 23 | 21 | 16 | > 30
Nc1nc2c(s1)CC(CNC(=O)[C@@H]1CCCN1)CC2 (stereo partly specified) | > 30 | > 30 | > 30 | > 30
Nc1nc2c(s1)C[C@@H](NC(=O)c1ccc[nH]1)CC2 | 21 | > 30 | > 30 | > 30
Nc1nc2c(s1)C[C@@H](NC(=O)c1cc(Br)c[nH]1)CC2 | 18 | > 30 | 26 | 21
Nc1nc2c(s1)C[C@@H](NC(=O)c1cc(Br)c(Br)[nH]1)CC2 | 16 | 15 | 26 | > 30

Second part, led by results:

IC50 [2] [µM] | IC50 [3] [µM] | IC50 [4] [µM] | Structure (SMILES) | IC50 [1] [µM]
> 30 | 25 | > 30 | Nc1nc2c(s1)C[C@@H](NC(=O)[C@@H]1CCCN1)CC2 | > 30
> 30 | 16 | 24 | Cn1cccc1C(=O)N[C@H]1CCc2nc(N)sc2C1 | > 30
20 | > 30 | 28 | Nc1nc2c(s1)CC(CNC(=O)c1ccc[nH]1)CC2 (stereo unspecified) | 21
> 30 | > 30 | 26 | CC(C)(C)OC(=O)N1CCC[C@H]1C(=O)NCC1CCc2nc(N)sc2C1 (stereo partly specified) | 20
